Laboratory results: the supplement of paper PMC10949913

Assays:
[1] = test system: CU-ACC1; test: area under concentration-response curve (viability) (AUC (a.u.)); higher = less active; conditions: 48 h
Method in brief: (§1)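 AC50 and area under the curve values derive from fitted concentration-response curves, restricted to inhibitory or non-responding curve classes. The curves came from three adrenocortical carcinoma cell lines in 1,536-well plates, each receiving 23 nL of every library compound at 11 concentrations. Viability was read by CellTiter-Glo luminescence after 48 h, normalised per plate to vehicle and empty-well controls.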

[2] = test system: NCI-H295R; test: as above; conditions: 48 h
Method in brief: as §1

| Compound | area under concentration-response curve [1] | area under concentration-response curve [2] |
| --- | --- | --- |
| CCc1ccc(CCOc2ccc(CC3SC(=O)NC3=O)cc2)nc1 (centres undefined) | 112 | 110 |
| COC1=C(OC)C=C2C(=CC=NC2=C1)OC3=CC=C(NC(=O)\C4=C\N(C(C)C)C(=O)N(C4=O)C5=CC=C(F)C=C5)C=C3F | 489 | 460 |
| NC(=O)c1cc(F)cc2c1C(=O)N(C1CCN(C3CCC(F)(F)CC3)CC1)C2 | 541 | 568 |
| Cc1c[nH]c(-c2cnc(NCCNc3ccc(C#N)cn3)nc2-c2ccc(Cl)cc2Cl)n1 | 538 | 558 |
| c1ccc2c(Oc3nc(Nc4ccc(N5CCOCC5)cc4)c4ncn(C5CCCCC5)c4n3)cccc2c1 | 481 | 535 |
| O=[S+]([O-])(CCSSCC[S+](=O)([O-])[O][Na])[O][Na] | 469 | 544 |
| CC[C@@H]1[C@H](F)C(=O)N[C@@H]1COc1nccc2cc(C(N)=O)c(OC)cc12 | 472 | 532 |
| Cc1ncc(OC[C@@]2(c3cccc(F)c3)C[C@H]2C(=O)Nc2ccc(F)cn2)c(C)n1 | 457 | 516 |
| CC1(C)O[C@@H]2C[C@H]3[C@@H]4CCC/5=C/C(=O)/C=C\[C@]5(C)[C@H]4[C@@H](O)C[C@]3(C)[C@@]2(O1)C(=O)CO | 469 | 524 |
| Cn1ncc(Cl)c1-c1cc(C(=O)N[C@H](CN)Cc2cccc(F)c2)sc1Cl | 305 | 335 |
| NC(=O)c1nc(F)cnc1O | 506 | 553 |
| O=C(Nc1nc2ccccc2n1CCN1CCOCC1)c1cccc([N+](=O)[O-])c1 | 527 | 549 |
| C/N=c1\ncc2cc(-c3cc(N/C(O)=N/CCC(C)(C)C)c(F)cc3C)c(C)nc2[nH]1 | 454 | 474 |
| C[C@@H](Nc1ncnc2[nH]c(-c3ccc(O)cc3)cc12)c1ccccc1 | 300 | 328 |
| Cn1cnc2c1c(=O)[nH]c(=O)n2C | 544 | 575 |
| COc1cc(C(=O)O)ccc1NC(=O)[C@@H]1N[C@@H](CC(C)(C)C)[C@](C#N)(c2ccc(Cl)cc2F)[C@H]1c1cccc(Cl)c1F | 469 | 540 |
| Cc1csc(-c2nnc(Nc3ccc(Oc4ncccc4-c4ccnc(N)n4)cc3)c3ccccc23)c1 | 504 | 470 |
| COc1cc2c(cc1OC)C1CC(=O)C(CC(C)C)CN1CC2 (centres undefined) | 506 | 567 |
| O=C(Nc1ccc(F)c(C(F)(F)F)c1)Nc1nnc(-c2ccncc2)s1 | 444 | 464 |

| Compound | area under concentration-response curve [1] | area under concentration-response curve [2] |
| --- | --- | --- |
| COc1cccc(OC)c1-c1cc(C(=O)NC2(C(=O)O)C3CC4CC(C3)CC2C4)nn1-c1ccnc2cc(Cl)ccc12 (centres undefined) | 513 | 569 |
| CC1=CC(=CC=C1)OC/2=C/NC(=O)/N=C2 | 539 | 566 |
| O=[S+]([O-])(F)Cc1ccccc1 | 510 | 517 |
| C[N]1N=CN=C1[C@@H]2[C@H](NC3=CC(=CC4=C3\C2=N/NC4=O)F)C5=CC=C(F)C=C5 | 405 | 415 |
| NC(=O)c1cnc2[nH]ccc2c1NC1C2CC3C[C@H]1CC(O)(C3)C2 (some centres undefined) | 519 | 547 |
| CC1(C)[C@@H](O)CC[C@@]2(C)[C@H]1CC[C@]3(C)[C@@H]2C(=O)\C=C/4[C@@H]5C[C@](C)(CC[C@]5(C)CC[C@@]34C)C(O)=O | 512 | 545 |
| CO[C@H]1CC[C@]2(CC1)CC3=C(C=C(C=C3)C4=CN=CC(=C4)C#CC)[C@@]2/5\N=C(C)/C(=N5)N | 487 | 532 |
| O=C/1NC(=O)C(=C1C2=CN=C3C=CC=C[N]23)/C4=C[N]5CCN(CC6=C5C4=CC=C6)C(=O)N7CCOCC7 | 514 | 526 |
| O=C(NNc1ccccc1)c1ccncc1 | 483 | 527 |
| Cn1c(CCCC(=O)O)nc2cc(N(CCCl)CCCl)ccc21 | 475 | 540 |
| c1cnc2cc3c(cc2n1)C1CNCC3C1 | 536 | 563 |
| CC(C)(C)C(=O)N1\N=C/C[C@H]1C2=CC=CC=C2 | 549 | 568 |
| COC/1=C(\CNC(=O)C2=C(C)[N]([C@H](C)C3CCOCC3)C4=CC=CC=C24)C(=O)NC(=C1)/C | 357 | 429 |
| O=C(Nc1cnn2ccc(N3CCC[C@@H]3c3cc(F)ccc3F)nc12)N1CC[C@H](O)C1 | 534 | 554 |
| C1C\N=C(\NC(C2CC2)C3CC3)O1 | 542 | 591 |
| O=C(O)CCc1ccc(NCc2cccc(Oc3ccccc3)c2)cc1 | 546 | 599 |
| COc1ccccc1C(=O)Nc1cc2c(cc1N1CCNC[C@H]1C)n(C)c(=O)n2C | 479 | 550 |
| CC(C)(S)[C@@H](N)C(=O)O | 637 | 711 |
| CC1=CC=C(C=C1)N(C\C2=N\CCN2)C3=CC=CC(=C3)O | 479 | 518 |

| Compound | area under concentration-response curve [1] | area under concentration-response curve [2] |
| --- | --- | --- |
| Cc1ccccc1C(C(=O)NC1CCCCC1)N(C(=O)CNc1ccc(C#N)cc1)c1cccc(F)c1 (centres undefined) | 485 | 507 |
| CC(C)c1ccccc1Cc1cc(C(=O)Nc2ccc([S+](=O)([O-])c3ccccc3C(C)(C)C)cc2)c(O)c(O)c1O | 293 | 205 |
| CN1CCCN(CC1)C2=CC=C3C(=O)\C(=C/4SC5=C(C=CC=C5)N4C3=N2)C(=O)NCC6=CN=C(C)C=N6 | 528 | 554 |
| C[N]1N=CC=C1C/2=C(\C)N(C(=O)C(=C2)/C(=O)NCC3=NC=C(C=C3)[S+](C)([O-])=O)C4=CC=CC(=C4)C(F)(F)F | 380 | 277 |
| Cn1cnc([N+](=O)[O-])c1Sc1ncnc2nc[nH]c12 | 427 | 472 |
| COc1cc(N2CCN(C)CC2)ccc1Nc1ncc2c(n1)N(C)c1ccccc1C(=O)N2C | 389 | 459 |
| CCC[S+](=O)([O-])Nc1ccc(F)c(C(=O)c2c[nH]c3ncc(Cl)cc23)c1F | 475 | 493 |
| Cc1c(F)ccc(C(=O)Nc2cc([N+](=O)[O-])ccc2N2CCN(C)CC2)c1Cl | 457 | 434 |
| C[C@H]1C[C@H]2[C@@H]3CC[C@](O)(C(=O)CO)[C@@]3(C)C[C@H](O)[C@@H]2[C@@]\4(C)/C=C\C(=O)\C=C14 | 520 | 553 |
| O=C\1N(N\C=C1[N]2C=CN=N2)C3=NC=NC(=C3)N4CCOCC4 | 492 | 521 |
| CC(=O)Oc1ccccc1C(=O)O | 357 | 402 |
| CCCCCC[C@H]1C(=O)O[C@H](C)[C@H](NC(=O)c2cccc(NC=O)c2O)C(=O)O[C@@H](C)[C@@H]1OC(=O)CC(C)C | 491 | 467 |
| CN(C[C@@H]1COCCO1)[S+]([O-])(=O)NC2=CC3=C(C=C2)\C=C/C4=C(C=C(C=N4)C5=C[N](C)N=C5)C3=O | 547 | 578 |
| CC(C)(O)[C@H]1CC[C@@](C)([C@H]2[C@@H](O)C[C@@]3(C)[C@@H]4C[C@H](O[C@@H]5O[C@H](CO)[C@@H](O)[C@H](O)[C@H]5O)[C@H]5C(C)(C)[C@@H](O[C@@H]6OC[C@@H](O)[C@H](O)[C@H]6O)CC[C@@]56C[C@@]46CC[C@]23C)O1 | 535 | 547 |
| COC1=C(OC)C=C2C(=C1)C(=O)N(CCC[N]3C=CN=C3)\C4=C2\C(=O)C5=CC6=C(OCO6)C=C45 | 468 | 517 |
| COC1=C(OC)C(=O)C(C/C=C(\C)CC/C=C(\C)CC/C=C(\C)CC/C=C(/C)CC/C=C(\C)CC/C=C(\C)CC/C=C(\C)CC/C=C(\C)CC/C=C(\C)CCC=C(C)C)=C(C)C1=O | 502 | 559 |
| O=C(/C=C/c1ccc(O)cc1)c1ccc(O)cc1O | 465 | 492 |
| CCN1\C=C(C(O)=O)/C(=O)C2=C1C=C(N3CCN(C)CC3)C(=C2)F | 511 | 555 |
| CN1C(=O)N[C@H](Cc2c[nH]c3c(Cl)cccc23)C1=O | 425 | 445 |
